Experimental data: patent US20230002774A1, “METHODS AND COMPOSTIONS FOR INHIBITING CORONAVIRAL REPLICATION” (California Institute of Technology, priority 2021, published 2023)
Where two headings read alike, the source gives them in different places.

Legend:
HCoV-229E [1] = assay: Stage-limited inhibition assay, viral RNA at 8 hpi, HCoV-229E in H1299 cells; format: cell-based; parameters: dose or concentration left out as unconfirmed
Procedure: (§1) Total cell RNA was extracted using the MagMAX mirVana Total RNA Isolation Kit (Thermo Fisher Scientific) with KingFisher systems (Thermo Fisher Scientific). RNA was quantified using NanoDrop Lite Spectrophotometer (Thermo Fisher Scientific). Total RNA ([…]) was reverse transcribed using the High-Capacity cDNA Reverse Transcription Kit (Thermo Fisher Scientific). cDNA samples were used for quantitative TagMan PCR using TaqMan™ Universal Master Mix II, no UNG (Thermo Fisher Scientific), in an QuantStudio™ 5 System (Thermo Fisher Scientific). FAM-MGB-labeled TaqMan probes for the indicated genes were purchased from Thermo Fisher Scientific. The resulting data were analyzed using Excel and GraphPad Prism 8.
(§2) H1299 cells were treated with 0.1% DMSO, […] CB-5083, or […] of NMS-873 from 30 min prior to virus infection until 8 h post-infection. […] Cells were collected at 8 hpi for viral RNA determination.

HCoV-OC43 [2] = conditions: HCoV-OC43, CB-5083 0.5 mM, 8 hpi
Procedure: Cells were fixed with cold 4% paraformaldehyde for 15 min followed by permeabilization/blocking with 10% FBS and 0.2% Triton X-100 for another 1 h. Cells were stained with mouse anti-dsRNA antibody clone rJ2 (1:50) (Sigma-Aldrich, MABE1134) followed by labeling with anti-mouse mouse secondary antibody conjugated to Alexa-488 (Thermo Fisher Scientific). Nuclei were stained with Hoechst. Fluorescent images were acquired using Thermo Scientific™ Invitrogen™ EVOS™ FL Auto 2 Imaging System.
Cells were treated with the indicated concentration of CB-5083 and infected with virus. After 1 h of infection, cells were washed three times with serum-free media and then returned to media containing 2% FBS and the same concentration of CB-5083.

HCoV-OC43 [3] = format: cell-based; parameters: HCoV-OC43 viral RNA level reduced: dose or concentration left out as unconfirmed; conditions: CB-5083 until 8 hpi, harvested 24 hpi
HCoV-229E [4] = assay: Titer of secreted virus in culture media by TCID50 in H1299 cells, HCoV-229E; format: cell-based
HCoV-OC43 [5] = assay: Stage-limited inhibition assay, viral RNA at 8 hpi, HCoV-OC43 in H1299 cells; format: cell-based; conditions: for viral RNA levels vs vehicle control, inhibitors throughout the experiment (group 2): 1 mM CB-5083 or 2 mM NMS-873, 30 min before infection to 8 hpi, harvested 8 hpi; for viral RNA levels, early treatment (group 3: pretreatment to 0 hpi): 1 mM CB-5083 or 2 mM NMS-873, harvested 8 hpi
Procedure: as §1, §2

H1299 cells = conditions: cell viability at 72 hpi, normalized to mock-infected DMSO-treated control
Procedure: (§3) Cells were seeded using 2×10^5 cells per well in 96-well plates and incubated overnight at 37° C. Cells were treated with the indicated concentration of CB-5083 and infected with virus or mock infected. After 1 h of infection, cells were washed three times with serum-free media and then cultured with media containing 10% FBS and the same concentration of CB-5083. Cultured media was replaced with fresh media at 8 hpi. At 72 hpi, cell viability was measured by CellTiter-Glo® Luminescent Cell Viability Assay (Promega).

HCoV-229E [6] = system: HCoV-229E
HCoV-OC43 [7] = assay: Titer of secreted virus in culture media by TCID50 in H1299 cells, HCoV-OC43; format: cell-based
HCoV-229E [8] = format: cell-based
[9] = system: HCoV-infected H1299 cells; conditions: CB-5083 0.5 mM until 8 hpi, viability at 72 hpi
Procedure: as §3

SMILES	viral RNA levels vs vehicle control, inhibitors throughout the experiment (group 2) (HCoV-229E [1])	viral RNA levels, early treatment (group 3: pretreatment to 0 hpi) (HCoV-229E [1])	dsRNA signals (immunostaining) (HCoV-OC43 [2])	HCoV-OC43 viral RNA level reduced (HCoV-OC43 [3])	HCoV-OC43 viral RNA level, effect of different doses (HCoV-OC43 [3])	viral titer of secreted HCoV-229E decreased (HCoV-229E [4]) [%]	viral RNA levels vs vehicle control, inhibitors throughout the experiment (group 2) (HCoV-OC43 [5])	viral RNA levels, early treatment (group 3: pretreatment to 0 hpi) (HCoV-OC43 [5])	toxicity of the tested concentrations to H1299 cells (H1299 cells)	dsRNA signals (immunostaining) (HCoV-229E [6])	viral titer of secreted HCoV-OC43 decreased (HCoV-OC43 [7]) [%]	HCoV-229E viral RNA level reduced (HCoV-229E [8])	HCoV-229E viral RNA level, effect of different doses (HCoV-229E [8])	cell viability increased compared to HCoV-infected and DMSO-treated control [9] [%]	viral RNA levels vs vehicle control, inhibitors throughout the experiment (group 2) (HCoV-229E [1]; HCoV-229E, 30 min before infection to 8 hpi, harvested 8 hpi)	viral RNA levels, early treatment (group 3: pretreatment to 0 hpi) (HCoV-229E [1]; HCoV-229E, harvested 8 hpi)
Cc1cc2c(C(N)=O)cccc2n1-c1nc2c(c(NCc3ccccc3)n1)COCC2 [CB-5083]	Extensive reduction	only minor or no effects	lower dsRNA signals	about 40%	reduced by CB-5083 in a dose-dependent manner	~81	Extensive reduction	only minor or no effects	non-toxic	lower dsRNA signals	~85	about 47%	reduced by CB-5083 in a dose-dependent manner	~29		
Cc1cc(OCc2nnc(SC3CCCC3)n2-c2cccnc2)ccc1-c1ccc(S(C)(=O)=O)cc1 [NMS-873, 3-[3-cyclopentylsulfanyl-5-[[3-methyl-4-(4-methylsulfonylphenyl)phenoxy]methyl]-1,2,4-triazol-4-yl]pyridine]							Extensive reduction	only minor or no effects							Extensive reduction	only minor or no effects
